Columns and labels:
[1] = test system: H2O2 (ROS) production of BAT mitochondria; test: Fluorometric detection of hydrogen peroxide production (Amplex UltraRed) in fresh BAT mitochondria; assay type: biochemical, rat; settings: for ROS production on titration, all substrates tested: metformin 0–200 mM or phenformin 0–60 mM, pattern highly similar for all substrates
Description: (§1) We used interscapular brown adipose tissue (BAT) of four-week-old Wistar rats kept at 22°C under 12 h/12 h light/dark cycle on a standard diet and water supply ad libitum. All animal works were approved by the institutional ethics committee and were in accordance with the EU Directive 2010/63/EU for animal experiments. Mitochondria were isolated in STE medium (250 mM sucrose, 10 mM Tris–HCl, 1 mM EDTA, pH 7.4) and supplemented with BSA (10 mg/mL) by differential centrifugation. Quality of isolation was routinely checked by oxygraph, and fresh mitochondria were used for measurements of oxygen consumption and hydrogen peroxide production. Subsequently, frozen-thawed mitochondria were used for determination of enzymatic activities; as in such preparations, the integrity of mitochondrial membrane is disrupted and NADH has therefore access to the oxidation site of NDH. Also, freezing/thawing ensures that the membrane potential is not maintained.
Hydrogen peroxide production was determined fluorometrically by measuring oxidation of Amplex UltraRed (Thermo Fisher) essentially as before. Fluorescence of the Amplex UltraRed oxidation product was measured at 37°C using Tecan Infinite M200 multiwell fluorometer. Excitation/emission wavelengths were 544 nm (bandwidth 15 nm)/590 nm (bandwidth 30 nm). The assay was performed with 10 μg of mitochondrial protein in KCl-based medium (120 mM KCl, 3 mM HEPES, 5 mM KH2PO4, 3 mM MgSO4, 1 mM EGTA, 3 mg/mL BSA, pH 7.2) supplemented either with 10 mM pyruvate plus 2 mM malate, 10 mM succinate, or 10 mM GP. Amplex UltraRed was used at the final concentration of 50 μM with horseradish peroxidase (HRP) at 1 U/mL. Fluorescence signal from the well containing all substrates and inhibitors, but not mitochondria, was subtracted as a background for every experimental condition used. Background, caused mostly by autoxidation of the dye or nonenzymatic effect of inhibitors on apparent ROS production, varied between conditions from 0 to 1 pmol/s/mg and was uniform across respective titration points. Signal was calibrated using H2O2 at the final concentration of 0–5 μM, and H2O2 stock concentration was routinely checked by measuring its absorption at 240 nm.

[2] = test system: treated patients; settings: cited from earlier work
[3] = target: respiratory chain dehydrogenases NDH, SDH, and mGPDH; test: Enzyme activity assays of mitochondrial dehydrogenases in frozen-thawed BAT mitochondria (spectrophotometry); assay type: biochemical, rat; settings: isolated BAT mitochondria, range over all three enzymes, read-out: IC50, inhibition of respiratory chain dehydrogenase enzyme activities (NDH, SDH, mGPDH)
Description: as §1, with “Also, freezing/thawing ensures that the membrane potential is not maintained.” left out
(§2) Activities of mitochondrial dehydrogenases were determined spectrophotometrically as NADH oxidoreductases (NDH, monitored at 340 nm, ε340 = 6.22 mM^−1·cm^−1) or CoQ1 oxidoreductases (SDH and mGPDH, monitored at 275 nm, ε275 = 13.6 mM^−1·cm^−1). […] The reaction was started by adding 100 μM NADH, 25 mM glycerophosphate (GP), or 25 mM succinate, respectively, and after 5–10 minutes, changes of absorbance were monitored at 30°C. Enzyme activities were expressed as pmol/s/mg protein.

[4] = test system: respiration of BAT mitochondria (pyruvate plus malate, succinate, glycerophosphate); test: Polarographic oxygen consumption of isolated BAT mitochondria with substrates of NDH, SDH and mGPDH; assay type: biochemical, rat; settings: at the same concentrations as enzyme inhibition (IC50 80 to 180 mM)
Description: as §1
(§3) Oxygen consumption was measured at 30°C as described before using Oxygraph-2k (Oroboros, Austria). Measurements were performed in 2 mL of KCl medium (80 mM KCl, 10 mM Tris–HCl, 3 mM MgCl2, 1 mM EDTA, 5 mM K-Pi, pH 7.4) using 15–60 μg protein/mL of freshly isolated mitochondria. For measurements, 10 mM pyruvate plus 2 mM malate, 10 mM succinate, or 10 mM GP, respectively, were used. The oxygen consumption was expressed in pmol oxygen/s/mg protein.

[5] = test system: NADH dehydrogenase (complex I, NDH); test: NDH enzyme activity (NADH oxidoreductase) in BAT mitochondria; assay type: biochemical, rat
Description: as §1, with “Also, freezing/thawing ensures that the membrane potential is not maintained.” left out
as §2

[6] = reported values; cited from earlier work
[7] = target: T1, succinate dehydrogenase (SDH) (Rattus norvegicus, UniProt P21913+Q641Z9+Q6PCT8+Q920L2); test: SDH activity (succinate:CoQ1 oxidoreductase / succinate respiration) in BAT mitochondria; assay type: biochemical
T1 construct: from tissue; host or cells: mitochondria isolated from rat interscapular brown adipose tissue
T1 sequence (Q920L2 35-656): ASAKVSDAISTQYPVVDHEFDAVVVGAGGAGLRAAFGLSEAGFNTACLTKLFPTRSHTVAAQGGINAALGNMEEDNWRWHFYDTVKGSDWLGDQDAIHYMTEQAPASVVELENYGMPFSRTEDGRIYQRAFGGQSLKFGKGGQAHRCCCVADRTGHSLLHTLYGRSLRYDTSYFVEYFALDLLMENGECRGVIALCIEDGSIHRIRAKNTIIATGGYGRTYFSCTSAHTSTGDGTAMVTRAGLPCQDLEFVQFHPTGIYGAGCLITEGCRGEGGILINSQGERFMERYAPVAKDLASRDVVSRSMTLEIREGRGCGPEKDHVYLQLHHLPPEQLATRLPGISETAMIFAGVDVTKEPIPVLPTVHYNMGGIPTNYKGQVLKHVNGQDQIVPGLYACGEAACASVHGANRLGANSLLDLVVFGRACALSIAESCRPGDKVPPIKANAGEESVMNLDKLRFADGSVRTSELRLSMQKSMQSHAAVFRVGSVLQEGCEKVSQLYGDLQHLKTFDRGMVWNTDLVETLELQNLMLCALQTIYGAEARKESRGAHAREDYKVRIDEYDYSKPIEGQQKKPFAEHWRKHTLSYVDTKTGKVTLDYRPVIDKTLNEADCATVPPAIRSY
T1 sequence (P21913 31-282): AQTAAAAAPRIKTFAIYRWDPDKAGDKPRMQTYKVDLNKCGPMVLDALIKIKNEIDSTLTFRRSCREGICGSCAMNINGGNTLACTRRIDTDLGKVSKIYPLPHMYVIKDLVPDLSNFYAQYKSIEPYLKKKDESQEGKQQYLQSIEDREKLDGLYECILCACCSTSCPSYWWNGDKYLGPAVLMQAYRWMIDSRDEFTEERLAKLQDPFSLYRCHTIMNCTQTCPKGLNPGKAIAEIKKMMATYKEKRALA
T1 sequence (Q641Z9 30-169 limits assumed): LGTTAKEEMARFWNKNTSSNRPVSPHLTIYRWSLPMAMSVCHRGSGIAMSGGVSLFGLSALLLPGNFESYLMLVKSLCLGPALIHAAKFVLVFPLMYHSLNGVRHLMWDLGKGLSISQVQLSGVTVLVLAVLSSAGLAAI
T1 sequence (Q6PCT8 57-159): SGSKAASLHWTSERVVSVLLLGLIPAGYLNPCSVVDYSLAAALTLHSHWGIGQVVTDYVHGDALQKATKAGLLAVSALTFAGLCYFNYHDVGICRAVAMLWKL
Description: as §1, with “Subsequently, frozen-thawed mitochondria were used for determination of enzymatic activities; as in such preparations, the integrity of mitochondrial membrane is disrupted and NADH has therefore access to the oxidation site of NDH. Also, freezing/thawing ensures that the membrane potential is not maintained.” left out
as §2
Oxygen consumption was measured at 30°C as described before using Oxygraph-2k (Oroboros, Austria). […]

[8] = target: T2, mitochondrial glycerophosphate dehydrogenase (mGPDH) (Rattus norvegicus, UniProt P35571); test: mGPDH activity (glycerophosphate:CoQ1 oxidoreductase) in BAT mitochondria; assay type: biochemical
T2 construct: from tissue; host or cells: mitochondria isolated from rat interscapular brown adipose tissue
T2 sequence (P35571 43-727): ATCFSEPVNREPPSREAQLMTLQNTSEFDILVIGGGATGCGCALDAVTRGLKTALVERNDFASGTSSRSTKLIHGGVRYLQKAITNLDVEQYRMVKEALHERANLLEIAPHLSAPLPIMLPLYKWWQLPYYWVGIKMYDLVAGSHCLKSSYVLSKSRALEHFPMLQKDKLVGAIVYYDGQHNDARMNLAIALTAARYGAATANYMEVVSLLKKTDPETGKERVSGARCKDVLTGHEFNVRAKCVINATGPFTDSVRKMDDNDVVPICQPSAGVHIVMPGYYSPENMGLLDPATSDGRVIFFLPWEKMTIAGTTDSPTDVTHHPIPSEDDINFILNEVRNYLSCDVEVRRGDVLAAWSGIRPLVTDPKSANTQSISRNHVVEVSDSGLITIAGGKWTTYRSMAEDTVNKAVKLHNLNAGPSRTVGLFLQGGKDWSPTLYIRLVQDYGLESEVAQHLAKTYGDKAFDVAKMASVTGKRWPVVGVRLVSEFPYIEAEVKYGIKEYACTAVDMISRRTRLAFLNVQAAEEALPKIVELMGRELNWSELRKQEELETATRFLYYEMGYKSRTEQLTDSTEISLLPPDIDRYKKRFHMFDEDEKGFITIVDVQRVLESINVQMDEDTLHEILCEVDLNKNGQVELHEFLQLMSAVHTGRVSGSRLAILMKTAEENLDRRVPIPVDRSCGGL
Description: as §1, with “Also, freezing/thawing ensures that the membrane potential is not maintained.” left out
as §2

[9] = test system: pyruvate plus malate-supported oxygen consumption (NDH); test: Pyruvate plus malate-supported oxygen consumption of BAT mitochondria; assay type: biochemical, rat
Description: as §1, §3

SMILES: [H]/N=C(/N)N/C(=N/[H])NCCc1ccccc1 [phenformin]
- ROS production on titration, all substrates tested [1]: dose-dependent increase in ROS production
- Adverse effect leading to discontinued use [2]: induction of lactic acidosis

SMILES: CN(C)C(=N)N=C(N)N [metformin, dimethyl biguanide]
- IC50 [3]: > 80000 µM
- Effect on respiration with pyruvate and malate, succinate and glycerophosphate [4]: inhibited respiration
- Sensitivity of NDH activity to inhibitory action relative to SDH and mGPDH ([5]; metformin titration 0–200 mM, 100 μM NADH): most sensitive
- ROS production on titration, all substrates tested [1]: dose-dependent increase in ROS production
- Concentration inside tumors [6]: 1000 to 10000 nM

SMILES: COc1[nH]c(=O)c(C(=O)[C@@H](C)C[C@H](C)[C@@H](Cl)CCl)c(O)c1OC [atpenin A5]
- Concentration of complete inhibition of SDH ([7]; succinate as a substrate): 20 nM
- ROS production with low levels of succinate ([1]; 0.4 mM succinate, 0.5 μM atpenin A5): pronounced increase in ROS production

SMILES: O=C(O)CCC(=O)Nc1ccc(-c2nc3ccccc3[nH]2)cc1 [iGP-1]
- IC50 ([7]; enzyme activity and oxygen consumption, 10 mM succinate (Figures 4(b) and 4(d)), read-out: IC50, nonspecific action on SDH): ~80 µM
- Concentration at which activity of mGPDH was abolished [8]: 50 µM
- GP-dependent ROS production ([1]; 10 mM glycerophosphate, 100 μM iGP-1): inhibited

SMILES: C=C(C)[C@H]1Cc2c(ccc3c2O[C@@H]2COc4cc(OC)c(OC)cc4[C@@H]2C3=O)O1 [rotenone]
- Concentration of complete inhibition of complex I enzyme activity ([5]; BAT mitochondria): 500 nM
- Concentration of complete inhibition of pyruvate plus malate-supported oxygen consumption [9]: 500 nM
- Rate of H2O2 production with NADH-linked substrates ([1]; 10 mM pyruvate and 2 mM malate, 1 μM rotenone): increased the rate of H2O2 production

Source: paper PMC5569935, “Pleiotropic Effects of Biguanides on Mitochondrial Reactive Oxygen Species Production” (Oxidative Medicine and Cellular Longevity, 2017)
